Assay results: patent US7169809B2, “Nitric oxide releasing prodrugs of diaryl-2-(5H)-furanones as cyclooxygenase-2 inhibitors” (Merck Frosst Company, priority 2003, dated 2007)

What was measured:
COX-2 = biological target: T1, COX-2 (Homo sapiens, UniProt P35354); test: Human whole blood cyclooxygenase assay, COX-2 (LPS-induced PGE2 production); type: cell-based
T1 construct: Fresh blood is collected in heparinized tubes by venipuncture from healthy male volunteers; from tissue; host or cells: fresh heparinized human whole blood from healthy male volunteers, LPS-stimulated for 24 h
T1 sequence (P35354 18-604): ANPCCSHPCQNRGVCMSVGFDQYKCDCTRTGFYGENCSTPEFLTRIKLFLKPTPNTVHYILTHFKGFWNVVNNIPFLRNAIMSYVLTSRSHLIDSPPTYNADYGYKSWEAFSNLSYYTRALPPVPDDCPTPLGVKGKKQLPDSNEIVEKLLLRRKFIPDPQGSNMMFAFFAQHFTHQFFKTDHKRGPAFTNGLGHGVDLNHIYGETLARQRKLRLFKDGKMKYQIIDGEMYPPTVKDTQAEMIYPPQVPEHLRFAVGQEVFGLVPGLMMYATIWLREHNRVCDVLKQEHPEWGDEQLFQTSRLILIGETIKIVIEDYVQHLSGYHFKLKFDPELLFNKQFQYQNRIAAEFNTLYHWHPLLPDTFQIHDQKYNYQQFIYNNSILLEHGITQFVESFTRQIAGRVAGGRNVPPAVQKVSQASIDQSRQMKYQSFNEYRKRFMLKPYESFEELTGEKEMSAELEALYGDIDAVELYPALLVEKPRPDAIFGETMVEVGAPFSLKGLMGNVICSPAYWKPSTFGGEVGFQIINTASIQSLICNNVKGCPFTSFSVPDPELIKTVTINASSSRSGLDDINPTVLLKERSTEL
Description: (§1) Whole blood provides a protein and cell-rich milieu for the study of biochemical efficacy of anti-inflammatory compounds such as COX-2 inhibitors and NSAIDs. To study the inhibitory activities of these compounds on the two isoforms of cyclooxygenase (COX-1 and COX-2), human blood is either stimulated with lipopolysaccharide (LPS) for 24 hours to induce COX-2 or the blood is allowed to clot spontaneously to activate COX-1. The production of prostaglandin E2 (PGE2) and thromboxane B2 (TXB2) are measured by immunoassay at the end of the incubation as readouts of COX-2 and COX-1 activity, respectively.
(§2) Human whole blood assays for COX-1 and COX-2 activity, previously reported (Brideau et al, 1996) are performed as described below.
Fresh blood is collected in heparinized tubes by venipuncture from healthy male volunteers. These subjects have no apparent inflammatory conditions and have not taken any NSAIDs for at least 7 days prior to blood collection. The blood is initially pre-incubated with bacterial lipopolysaccharide (LPS) at 100 μg/ml (Sigma Chem, #L-2630 from E. coli, serotype 0111:B4; diluted in 0.1% w/v bovine serine albumin in phosphate buffered saline). Five minutes later, 500 μL aliquots of the LPS-treated blood aree incubated with 2 μL vehicle (DMSO) or 2 μL of test compounds in DMSO for 24 hr at 37° C. (for induction of COX-2). […]

[1] = system: carrageenan-induced rat paw edema; test: Carrageenan-induced rat paw edema assay; type: in vivo; conditions: oral, 1 hr pretreatment, Sprague-Dawley rats, paw volume at 3 h, read-out: inhibition of carrageenan-induced edema response
Description: The carrageenan-induced rat paw edema assay is an established assay for evaluating the efficacy of conventional, non-selective NSAIDs in acute inflammation (Winter and Flataker, 1965; Mukherjee et al., 1996; Vinegar et al., 1987).
Male Sprague-Dawley rats (200–250 g) are fasted for 16–18 h prior to oral administration of either the vehicle (0.5% methocel) or test compound. One hour later, a line was drawn using a permanent marker at a level above the ankle in one hind paw to define the area of the paw to be monitored. The paw volume (V0) is measured using a plethysmometer (Ugo-Basile, Italy) based on the Archimedes principle of water displacement. The rats are then injected subplantarly with 0.05 mL of a 1% carrageenan (Sigma Chem.) solution in saline using a syringe with a 27-gauge needle (i.e. 500 μg carrageenan per paw). Three hours later, the paw volume (V3) is measured again and the increases in paw volume (V3−V0) is calculated. Paw edema is compared with the vehicle-control group and the percent inhibition calculated taking the values in the control group as 0%.

gastric erosions = test: Gastric erosion model in rats (co-dosed with aspirin); type: in vivo, rat; conditions: Wistar rats, compared to rofecoxib dosed with aspirin, 3 hr
Description: The gastric protective effects of the combination of the present invention co-administered with aspirin may be evaluated in the following assay.
Male Wistar rats (200–250 g) were fasted for 16–18 h prior to use for experiment. Aspririn, rofecoxib in combination with aspirin (dosed separately), or test compound in combination with aspirin (dosed separately) were given on the morning of the experiment at a dosing volume of 1 ml/kg in 0.5% methocel. Three hr later, the animals were euthanized by CO2 inhalation and the stomach removed, rinsed in saline and prepared for imaging processing. Microscopic pictures of the stomach were taken using a digital camera and gastric erosions were measured using an imaging software by an observer unaware of the treatment groups. The length of gastric erosions was measured in mm and the total length of all erosions from each stomach was obtained and used as gastric damage score.
This model is also described in S. Fiorucci, et al., Gastroenterology, vol. 123, pp. 1598–1606, 2002 and M. Souza, et al., Am. J. Physiol. Gastrointest. Liver Physiol., vol. 285, pp. G54–G61, 2003.

COX-1 = biological target: T2, COX-1 (Homo sapiens, UniProt P23219); test: Human whole blood cyclooxygenase assay, COX-1 (clotting-induced TXB2 production); type: cell-based; conditions: clotting 1 h, n=3, read-out: IC50 for inhibition of clotting-induced TXB2 level
T2 construct: Fresh blood from male or female volunteers is collected into vacutainers containing no anticoagulants; from tissue; host or cells: fresh human whole blood without anticoagulant, from male or female volunteers, allowed to clot for 1 h at 37 °C
Description: as §1, §2
Fresh blood from male or female volunteers is collected into vacutainers containing no anticoagulants. These subjects have no apparent inflammatory conditions and have not taken any NSAIDs for at least 7 days prior to blood collection. Aliquots of 500 μL are immediately transferred to polypropylene tubes preloaded with 2 μL of DMSO or 2 μL of test compounds. The tubes are vortexed and incubated at 37° C. for 1 h to allow the blood to clot. At the end of the incubation, serum is obtained by centrifugation (3,000 rpm for 10 min at […]). […]

T2 sequence (P23219 24-599): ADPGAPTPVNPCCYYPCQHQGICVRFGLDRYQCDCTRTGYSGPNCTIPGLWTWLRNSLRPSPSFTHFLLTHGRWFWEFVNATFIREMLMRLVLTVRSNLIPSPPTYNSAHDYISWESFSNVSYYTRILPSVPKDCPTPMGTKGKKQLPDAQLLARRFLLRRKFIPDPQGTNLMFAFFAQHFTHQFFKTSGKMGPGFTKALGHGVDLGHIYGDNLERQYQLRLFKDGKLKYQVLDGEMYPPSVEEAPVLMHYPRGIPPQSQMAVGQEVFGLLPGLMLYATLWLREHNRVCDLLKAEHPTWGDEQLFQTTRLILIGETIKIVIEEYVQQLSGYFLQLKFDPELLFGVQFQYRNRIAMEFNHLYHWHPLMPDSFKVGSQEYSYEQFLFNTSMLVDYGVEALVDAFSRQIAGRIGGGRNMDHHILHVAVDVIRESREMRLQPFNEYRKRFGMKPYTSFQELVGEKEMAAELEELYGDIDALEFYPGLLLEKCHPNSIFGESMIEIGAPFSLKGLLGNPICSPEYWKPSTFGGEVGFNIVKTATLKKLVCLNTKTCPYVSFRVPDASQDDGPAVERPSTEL

CC(=O)OC/C(=C(\C(=O)OCCCCCCO[N+](=O)[O-])c1ccccc1)c1ccc(S(C)(=O)=O)cc1 [Example 1, 6-(nitrooxy)hexyl (2Z)-4-(acetyloxy)-3-[4-(methylsulfonyl)phenyl]-2-phenylbut-2-enoate] gave an IC50 (COX-2; LPS-stimulated human whole blood, 24 hr, n=6, read-out: IC50 for the inhibition of PGE2 production in a human whole blood assay) of 0.22 ± 0.04 µM, a COX1/COX2 selectivity (COX-2; in vitro human peripheral blood assay, ratio of COX-1 to COX-2 IC50) of 35 fold and an inhibition at 1 mg/kg [1] of 49%. The “gastric protection (gastric damage score)” value (gastric erosions) was “significant gastric protection” and the IC50 (COX-1) was 7.8 ± 2.6 µM.
